Patent publication US8101200B2, “Targeted therapeutic agent release devices and methods of making and using the same” (Angiotech BioCoatings, Inc., priority 2000, dated 2012)

Experiment: Elution of paclitaxel from E3 Med Coat coated stents in phosphate buffered saline
Type: physicochemical
Details: from E3 Med Coat stents (loading 50-60 μg), over a period of 14 days
Method: Solution E3-PC was coated on stainless steel coronary stents, and dried for 60 minutes at 120° C. This layer was applied twice. Solution E3 —Med Coat was coated over the precoat layers, and dried for 60 minutes at 120° C. Drug loading on the stents in the range of 50-60 μg was achieved by applying the Med Coat three times. The stent samples with three layers of E3—Med Coat were subjected to elution in room temperature phosphate buffered saline for times up to 336 hours, and produced the results set forth in TABLE I.

paclitaxel eluted out: approximately 10%
SMILES: CC(=O)O[C@H]1C(=O)[C@@]2(C)[C@H]([C@H](OC(=O)c3ccccc3)[C@]3(O)C[C@H](OC(=O)[C@H](O)[C@@H](NC(=O)c4ccccc4)c4ccccc4)C(C)=C1C3(C)C)[C@]1(OC(C)=O)CO[C@@H]1C[C@@H]2O [paclitaxel]
